Reference: patent publication US11279733B2, “Peptide antibiotics” (priority 2017, dated 2022)

Test system: bacterial strains
Experiment: Potentiation/synergy antimicrobial assay (checkerboard, FICI) with antibiotics
Assay type: cell-based
Conditions: for MIC of antibiotic with 6442 at concn 0: 6442 0 μg/mL; for MIC of antibiotic with 6442 at concn 0.03: 6442 0.03 μg/mL; for MIC of antibiotic with 6442 at concn 0.0625: 6442 0.0625 μg/mL; for MIC of antibiotic with 8980 at conc 0: 8980 0 μg/mL; for MIC of antibiotic with 8980 at conc 1: 8980 1 μg/mL; for MIC of antibiotic with 8980 at conc 2: 8980 2 μg/mL; for MIC of antibiotic with 8980 at conc 4: 8980 4 μg/mL; for MIC of antibiotic with 8980 at conc 8: 8980 8 μg/mL; for MIC of antibiotic with 8981 at conc 0: 8981 0 μg/mL; for MIC of antibiotic with 8981 at conc 1: 8981 1 μg/mL; for MIC of antibiotic with 8981 at conc 2: 8981 2 μg/mL; for MIC of antibiotic with 8981 at conc 4: 8981 4 μg/mL; for MIC of antibiotic with 8981 at conc 8: 8981 8 μg/mL; for MIC of antibiotic with OctC4 at concn 0: OctC4 0 μg/mL; for MIC of antibiotic with OctC4 at concn 0.03: OctC4 0.03 μg/mL; for MIC of antibiotic with OctC4 at concn 0.0625: OctC4 0.0625 μg/mL; for MIC of antibiotic with OctC4 at concn 0.125: OctC4 0.125 μg/mL; for MIC of antibiotic with 6442 at concn 0.25: 6442 0.25 μg/mL
Method: Potentiation/synergy antimicrobial assays were conducted in the same manner as the standard MICs described above, with the following modifications. Assays were performed in 384-well non-binding surface plates (NBS; Corning 3460) and in Cation-adjusted Mueller Hinton Broth (CA-MHB; BD, Cat. No. 212322) with a final assay volume of 50 μL once bacteria was added at 5×10^5 CFU/mL. Antibiotics and octapeptin compounds were plated in duplicate as a 2-fold concentration series, in a matrix checkerboard format. The bacterial cell density of the resultant assay plates after 18-20 h incubation at 37° C. was read by optical density 600 nm (OD600) using a Tecan M1000 Pro Spectrophotometer, and analysed for ≥90% growth inhibition compared to the growth control to determine active concentrations. Synergistic effect was calculated based on the fractional inhibitory concentration index (FICI) by the following equation, where synergy is deemed FICI 0.5: […]

## CN(C)c1ccc(O)c2c1C[C@H]1C[C@H]3[C@H](N(C)C)C(O)=C(C(N)=O)C(=O)[C@@]3(O)C(O)=C1C2=O [Minocycline, minocycline]
GN_007 E. coli ESBL
  MIC of antibiotic with 6442 at concn 0: 0.25 µg/mL
  MIC of antibiotic with 6442 at concn 0.03: 0.25 µg/mL
  MIC of antibiotic with 6442 at concn 0.0625: 0.125 µg/mL
  MIC of antibiotic with 8980 at conc 0: 0.25 µg/mL
  MIC of antibiotic with 8980 at conc 1: 0.125 to 0.25 µg/mL
  MIC of antibiotic with 8980 at conc 2: 0.125 µg/mL
  MIC of antibiotic with 8980 at conc 4: 0.06 to 0.125 µg/mL
  MIC of antibiotic with 8980 at conc 8: 0.06 to 0.125 µg/mL
  MIC of antibiotic with 8981 at conc 0: 0.25 µg/mL
  MIC of antibiotic with 8981 at conc 1: 0.25 µg/mL
  MIC of antibiotic with 8981 at conc 2: 0.125 to 0.25 µg/mL
  MIC of antibiotic with 8981 at conc 4: 0.03 to 0.125 µg/mL
  MIC of antibiotic with 8981 at conc 8: 0.03 to 0.125 µg/mL
  MIC of antibiotic with OctC4 at concn 0: 0.25 µg/mL
  MIC of antibiotic with OctC4 at concn 0.03: 0.25 µg/mL
  MIC of antibiotic with OctC4 at concn 0.0625: 0.125 to 0.25 µg/mL
  MIC of antibiotic with OctC4 at concn 0.125: 0.125 µg/mL
GN_019 A. baumannii CARB
  MIC of antibiotic with 8980 at conc 0: 4 µg/mL
  MIC of antibiotic with 8981 at conc 0: 4 µg/mL
  MIC of antibiotic with 8981 at conc 1: 2 to 16 µg/mL
  MIC of antibiotic with 8981 at conc 2: 2 to 16 µg/mL
GN_045 K. pneumoniae NDM-1
  MIC of antibiotic with 6442 at concn 0: 32 µg/mL
  MIC of antibiotic with 6442 at concn 0.03: 32 µg/mL
  MIC of antibiotic with 6442 at concn 0.0625: 32 µg/mL
  MIC of antibiotic with 8980 at conc 0: 32 µg/mL
  MIC of antibiotic with 8981 at conc 0: 32 µg/mL
  MIC of antibiotic with OctC4 at concn 0: 32 µg/mL
  MIC of antibiotic with OctC4 at concn 0.03: 32 µg/mL
  MIC of antibiotic with OctC4 at concn 0.0625: 32 µg/mL
  MIC of antibiotic with OctC4 at concn 0.125: 32 µg/mL
GN_093 A. baumannii XDR/PmxR
  MIC of antibiotic with 8980 at conc 0: 8 µg/mL
  MIC of antibiotic with 8981 at conc 0: 8 µg/mL
  MIC of antibiotic with 8981 at conc 1: 4 to 32 µg/mL
  MIC of antibiotic with 8981 at conc 2: 2 to 32 µg/mL
GN_102 K. pneumoniae XDR/PmxR
  MIC of antibiotic with 6442 at concn 0: 32 µg/mL
  MIC of antibiotic with 6442 at concn 0.03: 16 µg/mL
  MIC of antibiotic with 6442 at concn 0.0625: 16 µg/mL
  MIC of antibiotic with 8980 at conc 0: 32 µg/mL
  MIC of antibiotic with 8981 at conc 0: 32 µg/mL
  MIC of antibiotic with OctC4 at concn 0: 32 µg/mL
  MIC of antibiotic with OctC4 at concn 0.03: 32 µg/mL
  MIC of antibiotic with OctC4 at concn 0.0625: 16 µg/mL
  MIC of antibiotic with OctC4 at concn 0.125: 16 µg/mL
GN_105 P. aeruginosa PmxR
  MIC of antibiotic with 6442 at concn 0: 8 µg/mL
  MIC of antibiotic with 6442 at concn 0.03: 4 µg/mL
  MIC of antibiotic with 6442 at concn 0.0625: 2 to 4 µg/mL
  MIC of antibiotic with 6442 at concn 0.25: 0.06 µg/mL
  MIC of antibiotic with 8980 at conc 0: 8 µg/mL
  MIC of antibiotic with 8980 at conc 2: 1 µg/mL
  MIC of antibiotic with 8980 at conc 4: 1 µg/mL
  MIC of antibiotic with 8981 at conc 0: 8 µg/mL
  MIC of antibiotic with OctC4 at concn 0: 8 µg/mL
  MIC of antibiotic with OctC4 at concn 0.03: 8 µg/mL
  MIC of antibiotic with OctC4 at concn 0.0625: 4 µg/mL
  MIC of antibiotic with OctC4 at concn 0.125: 4 µg/mL
GN_181 E. coli mcr-1
  MIC of antibiotic with 6442 at concn 0: 4 µg/mL
  MIC of antibiotic with 6442 at concn 0.03: 4 µg/mL
  MIC of antibiotic with 6442 at concn 0.25: 0.06 µg/mL
  MIC of antibiotic with 8980 at conc 0: 4 µg/mL
  MIC of antibiotic with 8980 at conc 1: 1 to 2 µg/mL
  MIC of antibiotic with 8980 at conc 2: 0.5 to 2 µg/mL
  MIC of antibiotic with 8980 at conc 4: 0.5 to 2 µg/mL
  MIC of antibiotic with 8980 at conc 8: 0.5 to 2 µg/mL
  MIC of antibiotic with 8981 at conc 0: 4 µg/mL
  MIC of antibiotic with 8981 at conc 1: 1 to 2 µg/mL
  MIC of antibiotic with 8981 at conc 2: 1 to 2 µg/mL
  MIC of antibiotic with 8981 at conc 4: 0.5 to 2 µg/mL
  MIC of antibiotic with 8981 at conc 8: 0.5 to 2 µg/mL
  MIC of antibiotic with OctC4 at concn 0: 4 µg/mL
  MIC of antibiotic with OctC4 at concn 0.03: 4 µg/mL
  MIC of antibiotic with OctC4 at concn 0.0625: 2 to 4 µg/mL
GN_181 E. coli mcr-1, 6442 0.125 μg/mL
  MIC of antibiotic with 6442 at concn 0.125: 1 µg/mL
GN_181 E. coli mcr-1, OctC4 0.25 μg/mL
  MIC of antibiotic with OctC4 at concn 0.25: 0.06 to 0.25 µg/mL
